Literature values as cited in patent US20030036565A1, “Cancer chemopreventive agents” (WISCONSIN ALUMNI RESEARCH FOUNDATION, priority 2001, published 2003).

Tested on: phase II enzyme synthesis
Conditions: cultured murine hepatoma cells; Wilkinson and Clapper, 1997
In the case of `O=c1cc(-c2ccccc2)oc2ccc3ccccc3c12` [β-naphthoflavone], the “induction of phase II enzyme synthesis” value is listed as “induce phase II enzyme synthesis”. For `Cc1cc(C(C)(C)C)c(O)c(C(C)(C)C)c1` [BHT, butylated hydroxytoluene], the “induction of phase II enzyme synthesis” value is listed as “induce phase II enzyme synthesis”. In the case of `COc1ccc(O)c(C(C)(C)C)c1` [BHA, butylated hydroxyanisole], the “induction of phase II enzyme synthesis” value is given as “induce phase II enzyme synthesis”. For `CC(C)(C)c1cc(O)ccc1O` [TBHQ, tert-butylhydroquinone], the “induction of phase II enzyme synthesis” value is given as “induce phase II enzyme synthesis”.
